Where two headings read alike, the source gives them in different places. Marks after values point to notes of the source that are not given here.
Tests used:
[1] = target: T1, HLA-A*30:02 (Homo sapiens, UniProt P04439, D101N/D140H/D185E/E176R/F33S/G80R/H175R/K168Q/Q94H/R138E/R41S/V100E); details: percent relative the binding of a positive control peptide, cited from earlier work
[2] = target: T1, HLA-A*30:02; details: cited from earlier work
[3] = target: T1, HLA-A*30:02; details: cited from earlier work; remark: listed apart in the source
[4] = target: T2, HLA-A*24:02 (Homo sapiens, UniProt P04439, D101N/D140Y/D185E/E176V/E190D/F33S/G103R/G107R/I119L/I121M/I306V/K335N/L105A/L180Q/L300P/N151K/N90K/Q86E/Q94H/R106L/R138H/R89G/T104I/T345S/V100E/W191G/Y123F); details: cited from earlier work
[5] = target: T2, HLA-A*24:02; details: percent relative the binding of a positive control peptide, cited from earlier work
[6] = target: T2, HLA-A*24:02; details: cited from earlier work; remark: listed apart in the source
[7] = target: T3, HLA-A*02:01 (Homo sapiens, UniProt P04439, D140Y/D185E/D98H/E176V/E277Q/G131W/G231S/I119V/I121R/I166T/I218V/L300P/L318F/N151K/N90K/P208A/P217A/Q86G/Q94H/R138H/R169H/T345S); details: cited from earlier work
[8] = target: T3, HLA-A*02:01; details: percent relative the binding of a positive control peptide, cited from earlier work
[9] = target: T3, HLA-A*02:01; details: cited from earlier work; remark: listed apart in the source
[10] = target: T4, HLA-A*68:01 (Homo sapiens, UniProt P04439, A269V/D185E/E176V/E277Q/E87N/F33Y/G231S/I121M/I166T/I218V/L180W/L300P/L318F/N151K/P208A/P217A/Q86R/R169H/T345S); assay type: binding
[11] = target: T4, HLA-A*68:01; assay type: binding; details: duplicated experiments, positive binder >40%
[12] = target: T4, HLA-A*68:01; assay type: binding; details: time points 0-8 h
[13] = target: HLA-C*07:01 (Homo sapiens, UniProt P10321, K90N/S123Y); assay type: binding; details: percent relative the binding of positive control peptide […]; duplicated experiments; positive binder >40%
[14] = target: HLA-B*58:01 (Homo sapiens, UniProt P01889, A329T/C349S/D201E/D98Y/E176V/E187L/E204Q/E69T/G107R/I218V/I90N/K202T/L105A/L119I/N104I/N87E/Q89R/Q94S/R106L/R155S/R180L/R86G/S101N/S121R/S35A/S48A/T118I/V127L/V306I/V36M/Y140S/Y91M); assay type: binding; details: percent relative the binding of positive control peptide […]; duplicated experiments; positive binder >40%

Sequence: MYNYPAMLG [Rv0288_5–13wt]
- Bind A*30:02 ([1]; wild-type epitopes marked **): 45** percent
- Aff A*30:02 (ED50) ([2]; wild-type epitopes marked **): 7000 nM
- O-rate A*30:02 (t1/2) ([3]; wild-type epitopes marked **): 0.6 h
- O-rate A*24:02 (t1/2) ([4]; wild-type epitopes marked *): 1.4 h
- Bind A*24:02 ([5]; wild-type epitopes marked *): 72* percent
- Aff A*24:02 (ED50) ([6]; wild-type epitopes marked *): 600 nM

Sequence: SLGAEIAVE [Rv0288_27–35wt]
- O-rate A*02:01 (t1/2) ([7]; wild-type epitopes marked *): 1.8 h
- Bind A*02:01 ([8]; wild-type epitopes marked *): 28* percent
- Aff A*02:01 (ED50) ([9]; wild-type epitopes marked *): 1e-05 M

Sequence: GYAGTLQSL [Rv0288_20–28wt]
- O-rate A*24:02 (t1/2) [4]: 3.7 h
- Bind A*24:02 ([5]; […]): 76* percent
- Aff A*24:02 (ED50) [6]: 300 nM

Sequence: MLGHAGDMA [Rv0288_11–19wt]
- O-rate A*02:01 (t1/2) ([7]; wild-type epitopes marked *): 1.4 h
- Bind A*02:01 ([8]; wild-type epitopes marked *): 67* percent
- Aff A*02:01 (ED50) ([9]; wild-type epitopes marked *): 7e-07 M

Sequence: AMLGHAGDM [Rv0288_10–18wt]
- Bind A*30:02 ([1]; wild-type epitopes marked **): 97** percent
- O-rate A*02:01 (t1/2) ([7]; wild-type epitopes marked *): 1.7 h
- Aff A*30:02 (ED50) ([2]; wild-type epitopes marked **): 50 nM
- O-rate A*30:02 (t1/2) ([3]; wild-type epitopes marked **): 1.2 h
- O-rate A*24:02 (t1/2) ([4]; wild-type epitopes marked *): 3.1 h
- Bind A*24:02 ([5]; wild-type epitopes marked *): 25* percent
- Aff A*24:02 (ED50) ([6]; wild-type epitopes marked *): 100000 nM
- Bind A*02:01 ([8]; wild-type epitopes marked *): 46* percent
- Aff A*02:01 (ED50) ([9]; wild-type epitopes marked *): 6e-06 M

Sequence: HAMSSTHEA [Rv0288_70–78]
- Aff A*68:01 (ED50) [10]: 6000 nM
- Bind A*68:01 ([11]; percent relative the binding of positive control peptide […]): 77%
- Bind A*30:02 ([1]; […]): 88** percent
- O-rate A*68:01 (t1/2) [12]: 0.5 h
- O-rate A*02:01 (t1/2) [7]: 2.5 h
- Aff A*30:02 (ED50) [2]: 300 nM
- Bind C*07:01 [13]: 6%
- O-rate A*30:02 (t1/2) [3]: 0.6 h
- Bind B*58:01 [14]: 16%
- Bind A*02:01 ([8]; […]): 43* percent
- Aff A*02:01 (ED50) [9]: 6e-06 M

Sequence: TLQSLGAEI [Rv0288_24–32wt]
- O-rate A*02:01 (t1/2) ([7]; wild-type epitopes marked *): 1.7 h
- O-rate A*24:02 (t1/2) ([4]; wild-type epitopes marked *): 39.8 h
- Bind A*24:02 ([5]; wild-type epitopes marked *): 16* percent
- Aff A*24:02 (ED50) ([6]; wild-type epitopes marked *): 90 nM
- Bind A*02:01 ([8]; wild-type epitopes marked *): 46* percent
- Aff A*02:01 (ED50) ([9]; wild-type epitopes marked *): 3e-06 M

Sequence: SQIMYNYPA [Rv0288_2–10wt]
- Bind A*30:02 ([1]; […]): 46** percent
- O-rate A*02:01 (t1/2) [7]: 4.9* h
- Aff A*30:02 (ED50) [2]: 2000 nM
- O-rate A*30:02 (t1/2) [3]: 0.3 h
- Bind A*02:01 ([8]; […]): 78* percent
- Aff A*02:01 (ED50) [9]: 4E-07* M

Sequence: DLVRAYHAM [Rv0288_64–72wt]
- Aff A*68:01 (ED50) ([10]; peptide titrated 10−4 to 10−9 M): 400000 nM
- Bind A*68:01 ([11]; percent relative the binding of positive control peptide KTGGPIYKR): 34%
- O-rate A*68:01 (t1/2) [12]: 3.3 h
- O-rate A*24:02 (t1/2) ([4]; wild-type epitopes marked *): 2.9 h
- Bind A*24:02 ([5]; wild-type epitopes marked *): 31* percent
- Aff A*24:02 (ED50) ([6]; wild-type epitopes marked *): 2000 nM

— article PMC3608651, “A Broad Profile of Co-Dominant Epitopes Shapes the Peripheral Mycobacterium tuberculosis Specific CD8+ T-Cell Immune Response in South African Patients with Active Tuberculosis” (PLoS ONE, 2013)
